The values below come from BindingDB's records for doi:10.1111/cbdd.12811 (Università di Bari Aldo Moro, 2016).

Assay [1] addresses ATP-dependent translocase ABCB1 (Homo sapiens, UniProt P08183). Briefly: Calcein-AM Assay. As to the method:
(§1) MDCK-MDR1 or MDCK-MRP1 cells (50,000 cells per well) were seeded into black CulturePlate (96-well plate) with 100 μL medium and allowed to become confluentovernight. Hundred microliters of test compounds was solubilized in culture medium and added to monolayers. 96/wells plate was incubated at 37 °C for 30 min. Calcein-AM was added in 100 μL of phosphate-buffered saline (PBS) to yield a final concentration of 2.5 μm, and plate was incubated for 30 min. Each well was washed three times with ice-cold PBS.

For assay [2], the target named is Multidrug resistance-associated protein 1 (Homo sapiens, UniProt P33527). Briefly: Calcein-AM Assay. As to the method:
as §1

Multidrug resistance-associated protein 1, sequence (P33527 whole entry): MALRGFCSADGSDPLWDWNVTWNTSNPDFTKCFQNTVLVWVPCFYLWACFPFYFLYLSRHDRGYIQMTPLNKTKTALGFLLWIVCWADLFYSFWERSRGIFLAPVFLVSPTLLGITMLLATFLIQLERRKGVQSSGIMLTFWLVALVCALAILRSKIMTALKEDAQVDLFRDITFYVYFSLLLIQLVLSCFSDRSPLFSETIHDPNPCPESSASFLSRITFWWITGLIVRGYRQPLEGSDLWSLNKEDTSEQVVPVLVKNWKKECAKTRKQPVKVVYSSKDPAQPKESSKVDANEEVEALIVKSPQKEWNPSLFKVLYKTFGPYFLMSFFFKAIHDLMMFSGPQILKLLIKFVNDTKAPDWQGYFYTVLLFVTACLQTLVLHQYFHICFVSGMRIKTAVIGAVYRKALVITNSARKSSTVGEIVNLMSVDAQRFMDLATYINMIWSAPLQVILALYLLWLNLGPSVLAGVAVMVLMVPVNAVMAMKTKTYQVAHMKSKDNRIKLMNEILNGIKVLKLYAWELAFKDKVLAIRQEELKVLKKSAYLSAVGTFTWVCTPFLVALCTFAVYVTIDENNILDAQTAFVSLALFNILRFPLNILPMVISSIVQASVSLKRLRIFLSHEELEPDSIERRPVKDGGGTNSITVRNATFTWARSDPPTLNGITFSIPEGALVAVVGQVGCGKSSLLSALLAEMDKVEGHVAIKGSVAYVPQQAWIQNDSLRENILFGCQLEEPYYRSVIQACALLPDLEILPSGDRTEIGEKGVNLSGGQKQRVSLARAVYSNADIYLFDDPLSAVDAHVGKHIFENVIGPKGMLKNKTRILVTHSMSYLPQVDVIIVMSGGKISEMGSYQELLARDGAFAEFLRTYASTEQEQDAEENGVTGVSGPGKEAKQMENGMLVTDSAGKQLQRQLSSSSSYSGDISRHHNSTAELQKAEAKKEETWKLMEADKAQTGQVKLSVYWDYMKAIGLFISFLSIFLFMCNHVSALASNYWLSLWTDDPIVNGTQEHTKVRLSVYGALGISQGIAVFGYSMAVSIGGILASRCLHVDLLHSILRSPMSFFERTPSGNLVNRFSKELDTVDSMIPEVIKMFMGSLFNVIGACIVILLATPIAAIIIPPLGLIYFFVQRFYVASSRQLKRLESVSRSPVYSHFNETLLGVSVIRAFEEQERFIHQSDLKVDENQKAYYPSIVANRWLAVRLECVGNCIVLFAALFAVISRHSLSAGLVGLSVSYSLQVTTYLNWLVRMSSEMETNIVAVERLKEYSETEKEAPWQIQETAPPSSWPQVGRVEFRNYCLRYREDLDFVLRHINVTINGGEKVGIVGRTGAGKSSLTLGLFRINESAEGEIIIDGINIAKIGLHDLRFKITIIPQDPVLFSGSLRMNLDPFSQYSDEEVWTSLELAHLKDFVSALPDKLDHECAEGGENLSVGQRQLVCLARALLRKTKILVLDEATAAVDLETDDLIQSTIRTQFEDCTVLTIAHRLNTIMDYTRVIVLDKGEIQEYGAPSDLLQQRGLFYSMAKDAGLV
ATP-dependent translocase ABCB1, sequence (P08183 whole entry): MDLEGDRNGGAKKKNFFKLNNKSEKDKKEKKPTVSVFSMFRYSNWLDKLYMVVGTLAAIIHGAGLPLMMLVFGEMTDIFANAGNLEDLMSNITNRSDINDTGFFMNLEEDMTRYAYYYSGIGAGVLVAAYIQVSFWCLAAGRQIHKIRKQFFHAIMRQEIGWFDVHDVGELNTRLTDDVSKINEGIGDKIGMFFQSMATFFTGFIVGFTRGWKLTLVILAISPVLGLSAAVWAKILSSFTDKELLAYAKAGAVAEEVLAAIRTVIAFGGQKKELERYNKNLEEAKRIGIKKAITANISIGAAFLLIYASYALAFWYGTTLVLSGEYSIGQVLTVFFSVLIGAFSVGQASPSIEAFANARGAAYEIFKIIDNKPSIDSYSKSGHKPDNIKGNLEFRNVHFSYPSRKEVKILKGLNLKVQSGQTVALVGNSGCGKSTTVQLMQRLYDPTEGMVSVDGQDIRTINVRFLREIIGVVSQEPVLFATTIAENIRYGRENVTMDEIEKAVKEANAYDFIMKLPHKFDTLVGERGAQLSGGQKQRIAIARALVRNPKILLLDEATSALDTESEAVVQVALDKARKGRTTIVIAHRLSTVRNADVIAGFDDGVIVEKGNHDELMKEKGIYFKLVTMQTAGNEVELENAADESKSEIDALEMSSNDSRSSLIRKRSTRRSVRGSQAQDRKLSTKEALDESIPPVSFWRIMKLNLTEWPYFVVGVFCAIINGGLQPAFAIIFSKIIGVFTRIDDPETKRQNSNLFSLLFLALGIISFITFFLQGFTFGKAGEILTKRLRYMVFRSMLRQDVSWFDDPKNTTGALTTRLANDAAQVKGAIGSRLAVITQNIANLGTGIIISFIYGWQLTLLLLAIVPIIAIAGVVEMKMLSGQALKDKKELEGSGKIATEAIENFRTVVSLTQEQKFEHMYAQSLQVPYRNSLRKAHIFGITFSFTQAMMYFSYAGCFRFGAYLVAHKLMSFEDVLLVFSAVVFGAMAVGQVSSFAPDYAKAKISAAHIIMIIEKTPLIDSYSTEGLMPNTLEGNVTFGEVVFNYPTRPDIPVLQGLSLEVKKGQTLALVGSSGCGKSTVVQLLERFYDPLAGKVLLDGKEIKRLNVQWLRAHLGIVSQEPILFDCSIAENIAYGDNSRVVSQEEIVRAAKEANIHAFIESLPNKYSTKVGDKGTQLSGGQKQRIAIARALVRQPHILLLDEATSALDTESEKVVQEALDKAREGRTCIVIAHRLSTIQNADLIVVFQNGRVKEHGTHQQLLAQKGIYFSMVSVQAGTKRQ

For the molecule `COc1ccccc1NC(=O)c1cc(OC)c(OC)cc1OC` [2,4,5-Trimethoxy-N-(2-methoxy-phenyl)-benzamide (14)], the IC50 (as a rule, the concentration that gives 50% inhibition) in assay [1] was 3.52 µM; in assay [2], more than 100 µM.

For the molecule `COc1cc(OC)c(C(=O)Nc2ccc(Br)cc2)cc1OC` [N-(4-Bromo-phenyl)-2,4,5-trimethoxy-benzamide (10)], the IC50 in assay [1] is 9.27 µM; in assay [2], more than 100 µM.

On to `COc1cc(C(=O)Nc2ccccc2)cc(OC)c1OC` [3,4,5-trimethoxy-N-phenylbenzamide (5)], for which the IC50 was 70.7 µM in assay [1] and more than 100 µM in assay [2].

In the case of `COc1cc(OC)c(C(=O)Nc2ccccc2OC)c(OC)c1` [2,4,6-Trimethoxy-N-(2-methoxy-phenyl)-benzamide (16)], the IC50 is 47.6 µM in assay [1] and more than 100 µM in assay [2].

As to `COc1ccc(C(=O)Nc2ccc(Br)cc2)c(OC)c1OC` [N-(4-Bromo-phenyl)-2,3,4-trimethoxy-benzamide (11)], the IC50 in assay [1] was 19.4 µM; in assay [2], more than 100 µM.

Regarding `COc1cc(OC)c(C(=O)Nc2ccccc2)cc1OC` [2,4,5-Trimethoxy-N-phenyl-benzamide (6)], the IC50 in assay [1] was 21.9 µM; in assay [2] it was more than 100 µM.

For `COc1cc(OC)c(C(=O)Nc2ccc(Br)cc2)c(OC)c1` [N-(4-Bromo-phenyl)-2,4,6-trimethoxy-benzamide (12)], the IC50 in assay [1] is 76.2 µM; in assay [2] it was more than 100 µM.

In the case of `COc1ccccc1NC(=O)c1cc(OC)c(OC)c(OC)c1` [3,4,5-Trimethoxy-N-(2-methoxy-phenyl)-benzamide (13)], the results for the IC50 in assay [1] and in assay [2] were 26.2 µM and more than 100 µM, respectively.

Take `COc1cc(C(=O)Nc2ccc(Br)cc2)cc(OC)c1OC`: the IC50 in assay [1] is 27 µM.

On to `COc1ccc(C(=O)Nc2ccccc2)c(OC)c1OC` [2,3,4-Trimethoxy-N-phenyl-benzamide (7)], for which the IC50 in assay [1] and in assay [2] was more than 100 µM in each case.

For `COc1cc(OC)c(C(=O)Nc2ccccc2)c(OC)c1` [2,4,6-Trimethoxy-N-phenyl-benzamide (8)], the IC50 in assay [1] and in assay [2] was more than 100 µM throughout.

For the molecule `COc1ccccc1NC(=O)c1ccc(OC)c(OC)c1OC` [2,3,4-Trimethoxy-N-(2-methoxy-phenyl)-benzamide (15)], the IC50 in assay [1] is 30.4 µM; in assay [2], 71 µM.
